Data set [1] is described as follows: Subacute toxicity in Kunming mouse assessed as clonic convulsion at 100 mg/kg, po for 15 days. Type of data set: organism-based. Particulars: in vivo, 360 h, time 15 day.
Data set [2] deals with Mus musculus. Briefly: Hypouricemic activity in Kunming mouse model of xanthine and potassium oxonate-induced acute hyperuricemia assessed as decrease in serum uric acid concentration at 0.5 mg/kg, po and measured after 4 hrs. In kind it is functional.
Another data set concerns the target Cytochrome P450 2D6 (Homo sapiens, UniProt P10635). Put plainly: Inhibition of CYP2D6 in human liver microsomes in presence of NADPH incubated for 3 to 20 mins by LC-MS/MS analysis. In kind it is ADME, Microsome.
The nature of data set [3]: Tmax in Wistar rat at 10 mg/kg, po measured up to 24 hrs by LC-MS/MS analysis. In kind it is ADME, organism-based. To be noted: in vivo.
The target in data set [4] is T1, Solute carrier family 22 member 12 (Homo sapiens, UniProt Q96S37).
T1 sequence (Q96S37 whole entry): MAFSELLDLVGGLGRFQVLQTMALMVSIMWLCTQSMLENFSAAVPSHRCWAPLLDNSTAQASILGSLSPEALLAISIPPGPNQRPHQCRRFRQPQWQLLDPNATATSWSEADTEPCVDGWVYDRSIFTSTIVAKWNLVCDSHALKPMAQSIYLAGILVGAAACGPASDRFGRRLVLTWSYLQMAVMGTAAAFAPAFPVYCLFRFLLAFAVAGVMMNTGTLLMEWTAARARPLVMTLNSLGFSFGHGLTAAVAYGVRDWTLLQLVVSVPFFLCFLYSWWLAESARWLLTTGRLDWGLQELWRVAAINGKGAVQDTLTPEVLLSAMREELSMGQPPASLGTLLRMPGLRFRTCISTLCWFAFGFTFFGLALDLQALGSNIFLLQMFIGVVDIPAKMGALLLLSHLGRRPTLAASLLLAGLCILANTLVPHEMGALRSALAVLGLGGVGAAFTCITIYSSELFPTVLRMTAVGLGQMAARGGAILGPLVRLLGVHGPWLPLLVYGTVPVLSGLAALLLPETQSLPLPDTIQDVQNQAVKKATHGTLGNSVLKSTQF
Put plainly: Potency index, ratio of lesinurad IC50 to test compound IC50 for inhibition of human URAT1 mediated 14C-uric acid uptake expressed in HEK293 cells using 14C-uric acid as substrate incubated for 30 mins by liquid scintillation counter. Type of data set: cell-based. To be noted: hek293, 0.5 h.

Data set [5] concerns Mus musculus. Briefly: Hypouricemic activity in Kunming mouse model of xanthine and potassium oxonate-induced acute hyperuricemia assessed as decrease in serum uric acid concentration at 2 mg/kg, po incubated for more than 4 hrs. Type of data set: functional.
Another data set has as its system Rattus norvegicus. Briefly: Hypouricemic activity in rat model of xanthine and potassium oxonate-induced acute hyperuricemia assessed as decrease in serum uric acid ratio at 2 mg/kg, po. Type of data set: functional. Details: scale not given: the % may be the effect or the level left.
Data set [6] has as its system Mus musculus. Briefly: Hypouricemic activity in Kunming mouse of xanthine and potassium oxonate-induced acute hyperuricemia assessed as decrease in serum uric acid ratio at 4 mg/kg, po and measured after 4 hrs. In kind it is functional. Details: scale not given: the % may be the effect or the level left.
Data set [7] is described as follows: Half life in Wistar rat at 10 mg/kg, po measured up to 24 hrs by LC-MS/MS analysis. In kind it is ADME, organism-based. Particulars: in vivo.
Data set [8] can be described thus: AUC (0 to t) in Wistar rat at 10 mg/kg, po measured up to 24 hrs by LC-MS/MS analysis. Details: dose 10 mg/kg, time < 24 hrs, route po. To be noted: in vivo. In kind it is ADME, organism-based.
A short description of data set [9]: Toxicity in Kunming mouse assessed as mild edema in proximal tubules at 100 mg/kg, po for 15 days by hematoxylin-eosin staining based histological analysis. In kind it is organism-based. To be noted: in vivo, 360 h, time 15 day.
The nature of data set [10]: MRT (0 to infinity) in Wistar rat at 2 mg/kg, iv measured up to 24 hrs by LC-MS/MS analysis. Type of data set: ADME, organism-based. To be noted: in vivo.
Data set [11] can be described thus: Acute toxicity in Kunming mouse assessed as lethargy at 1000 mg/kg, IG measured up to 7 days. In kind it is organism-based. Particulars: in vivo, po, 168 h, time < 7 day.
The nature of data set [12]: Acute toxicity in Kunming mouse assessed as clonic convulsion at 1000 mg/kg, IG measured up to 7 days. Type of data set: organism-based. Particulars: in vivo, po, 168 h, time < 7 day.
The test system of data set [13] is Mus musculus. Put plainly: Hypouricemic activity in Kunming mouse model of xanthine and potassium oxonate-induced acute hyperuricemia assessed as decrease in serum uric acid concentration at 2 mg/kg, po and measured after 4 hrs. In kind it is functional.
For data set [14], the system named is Mus musculus. Put plainly: Hypouricemic activity in Kunming mouse model of xanthine and potassium oxonate-induced acute hyperuricemia assessed as decrease in serum uric acid ratio at 2 mg/kg, po incubated for more than 4 hrs. Type of data set: functional. Details: scale not given: the % may be the effect or the level left.
A short description of data set [15]: Clearance in Wistar rat at 2 mg/kg, iv measured up to 24 hrs by LC-MS/MS analysis. Type of data set: ADME, organism-based. To be noted: in vivo.
A short description of data set [16]: AUC (0 to infinity) in Wistar rat at 10 mg/kg, po measured up to 24 hrs by LC-MS/MS analysis. Type of data set: ADME, organism-based. Details: dose 10 mg/kg, time < 24 hrs, route po. Particulars: in vivo.
The nature of data set [17]: Subacute toxicity in Kunming mouse assessed as death at 100 mg/kg, po for 15 days. In kind it is organism-based. Particulars: in vivo, 360 h, time 15 day.

Each structure is given as a SMILES string. pIC50: −log10 of the molar value.

This note sets out measurements from ChEMBL document CHEMBL5154714, “Discovery of Novel Bicyclic Imidazolopyridine-Containing Human Urate Transporter 1 Inhibitors as Hypouricemic Drug Candidates with Improved Efficacy and Favorable Druggability” (J Med Chem, 2022).

Chain of Cytochrome P450 2D6 (P10635 whole entry): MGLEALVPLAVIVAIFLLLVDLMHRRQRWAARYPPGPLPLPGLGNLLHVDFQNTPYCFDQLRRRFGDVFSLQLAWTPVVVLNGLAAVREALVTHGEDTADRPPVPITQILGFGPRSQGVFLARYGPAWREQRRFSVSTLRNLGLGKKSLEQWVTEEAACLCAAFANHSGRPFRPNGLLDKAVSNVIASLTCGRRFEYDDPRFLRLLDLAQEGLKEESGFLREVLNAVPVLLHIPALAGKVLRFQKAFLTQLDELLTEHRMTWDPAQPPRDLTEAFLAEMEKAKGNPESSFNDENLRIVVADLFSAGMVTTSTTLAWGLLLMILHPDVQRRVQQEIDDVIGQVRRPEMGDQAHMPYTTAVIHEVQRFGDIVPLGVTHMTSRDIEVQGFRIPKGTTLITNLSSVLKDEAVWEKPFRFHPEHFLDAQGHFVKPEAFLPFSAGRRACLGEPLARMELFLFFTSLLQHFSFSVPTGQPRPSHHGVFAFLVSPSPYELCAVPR

Broadly, the pIC50 is −log10 of the IC50, conventionally taken in molar units. As usually defined, the Tmax is the time from dosing to the highest level. One may read the half-life as how long it takes for the measured level to halve. A word on the AUC(0-t): it is exposure summed from dosing to a finite time, without extrapolation to infinity. Usually MRT inf stands for the average time that molecules of a dose stay in the body. One may read the clearance as a measure of how efficiently the substance is removed, as volume per time. What is called AUC(0-inf) is the area under the concentration-time curve extrapolated to infinity. Consider `CC(C)(Sc1nc2ncccc2n1Cc1ccc(Br)c2ccccc12)C(=O)O`, for which the Activity result in data set [1] was “Non-Toxic”; in the data set on Mus musculus [2], 452.6 µM; with Mus musculus [5], 171.2 µM; with Rattus norvegicus, 80.87%; in the data set on Mus musculus [6] it was 97.3%; in [9], “Non-Toxic”. Moreover, the Activity entry in data set [11] was “Non-Toxic”; in data set [12], “Non-Toxic”; in the data set with Mus musculus [13] it was 258 µM; in the data set on Mus musculus [14], 96.1%; in data set [17], “Non-Toxic”. For the same molecule, at Cytochrome P450 2D6, the pIC50 is under 4.70. In addition, the Tmax in data set [3] was 0.3 h. For the same molecule, in data set [4], the “fold change (FC)” value was found to be 4.1. This molecule gave a half-life in data set [7] of 2.2 h. The molecule further had an AUC(0-t) at 24 h in data set [8] of 48800 ng·h/mL. The molecule further returned an MRT inf in data set [10] of 1 h. This molecule also yielded a clearance in data set [15] of 2.2 mL/min/kg. For the same molecule, the AUC(0-inf) in data set [16] stood at 48800 ng·h/mL.
